Assay results from patent publication US7094869B2, “Low molecular weight peptidomimetic growth hormone secretagogues” (Genentech, Inc., priority 1994, dated 2006).
Entries after “also recorded” stand apart in the source; their conditions may differ.

Columns and labels:
[1] = system: TSH; assay: TSH release from pituitary cells (RIA); format: cell-based, rat; settings: 100 nM; listed as (inip)-bbFK-NH2
Procedure: (§1) Dispersion: Adult female Sprague-Dawley (160-180 g., Charles River) rats were group-caged in a 12:12 light:dark cycle with food and water available ad libitum. Pituitaries from ten rats were removed, the posterior pituitary discarded and the anterior pituitary placed in Hanks' Balanced Salt Solution (HBSS: without calcium chloride, w/o magnesium chloride, w/o magnesium sulfate; Gibco) containing 20 mM HEPES (Gibco) and 100 U/ml penicillin streptomycin (PS: JRH Biosciences). Under sterile conditions, pituitaries were rinsed twice then minced into small fragments with a razor blade. Fragments were resuspended in 5 ml of HBSS/HEPES containing 20 mg collagenase (Serva 17449) and […] of 1 mg/ml DNase (Sigma) for a 40 min. incubation in a 37° C. gyrotory water bath shaker (New Brunswick Scientific Model G76; setting 10). […] The cells were centrifuged 1000× g for 5 min, resuspended, counted and plated at a final cell concentration of 100,000 cells/ml. […] STATISTICS: The mean for each group was determined and analyzed by one-way analysis of variance with a post-hoc Student-Newman-Keuls. […] The EC50 was calculated using a 4-parameter curve-fit program (Kaleidagraph). […] RIA of pituitary hormones: LH, FSH, TSH, and Prolactin were determined with commercially available kits from Amersham, and ACTH levels were determined by a RIA kit from ICN. […]

[2] = system: FSH; assay: FSH release from pituitary cells (RIA); format: cell-based, rat; settings: 100 nM; listed as (inip)-bbFK-NH2
Procedure: as §1

With `NCCCC[C@H](NC(=O)[C@H](Cc1ccccc1)NC(=O)[C@@H](Cc1ccc2ccccc2c1)NC(=O)[C@@H](Cc1ccc2ccccc2c1)NC(=O)C1CCNCC1)C(N)=O` [(inip) b b F K amide, (inip)-DβNal-DβNal-Phe-Lys-amide] the TSH release [1] was “had no effect on these hormone concentrations; also recorded: unchanged” and the FSH release [2] was “had no effect on these hormone concentrations; also recorded: unchanged”.
